# Target: Methylosome protein 50/Protein arginine N-methyltransferase 5 (Homo sapiens, UniProt O14744)
# Assay: PRMT5/MEP50 HotSpot Methyltransferase Assay
# Protocol: Table 2: The assay used recombinant full-length histone H2A as the substrate of PRMT5. Enzymatic transfer of the tritiated methyl group from S-adenosyl-L-[methyl-3H]methionine (3H-SAM) to the histone H2A protein generated a radiolabeled histone H2A by measuring in a scintillation counter to determine the activity of PRMT5 enzyme in the presence and absence of compound. The assay reactions were conducted in the presence of 100 nM MTA. Briefly, compounds were solubilized in 100% DMSO at the highest concentration of 10 mM. […] Control samples lacking compound, PRTM5/MEP50 complex or various reaction components also were prepared and processed in parallel with compound test samples. SAH was used as a positive control for assay validation. To measure PRMT5 inhibitory activity, 1 nM PRTM5/MEP50 complex was preincubated with test compound in assay buffer containing 5 μM full-length histone H2A for 15 minutes at room temperature. The enzymatic reaction was initiated by adding 1 μM 3H-SAM (final concentration) and the mixture was incubated at 30° C. for 1 hour. The reaction was stopped and transferred to filter paper for detection. The amount of tritiated H2A in each sample was determined using a scintillation counter.
# Chain of Methylosome protein 50/Protein arginine N-methyltransferase 5 (O14744 whole entry): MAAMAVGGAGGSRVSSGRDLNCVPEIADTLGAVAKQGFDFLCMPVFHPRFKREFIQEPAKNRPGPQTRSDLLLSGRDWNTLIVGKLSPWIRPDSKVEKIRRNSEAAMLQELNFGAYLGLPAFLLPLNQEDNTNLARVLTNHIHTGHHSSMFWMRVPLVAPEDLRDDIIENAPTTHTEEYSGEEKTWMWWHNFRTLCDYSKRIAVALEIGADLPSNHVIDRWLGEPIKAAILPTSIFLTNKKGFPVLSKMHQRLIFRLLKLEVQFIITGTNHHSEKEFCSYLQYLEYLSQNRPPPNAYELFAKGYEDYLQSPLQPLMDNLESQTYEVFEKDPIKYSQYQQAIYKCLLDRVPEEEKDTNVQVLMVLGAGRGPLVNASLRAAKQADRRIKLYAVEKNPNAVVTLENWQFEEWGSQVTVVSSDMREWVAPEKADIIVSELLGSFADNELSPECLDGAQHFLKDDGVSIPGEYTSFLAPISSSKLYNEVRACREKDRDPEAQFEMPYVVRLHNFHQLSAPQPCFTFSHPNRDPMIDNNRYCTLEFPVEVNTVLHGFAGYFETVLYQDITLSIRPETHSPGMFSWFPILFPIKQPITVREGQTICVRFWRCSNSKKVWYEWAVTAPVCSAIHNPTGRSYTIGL
# Chain of Methylosome protein 50/Protein arginine N-methyltransferase 5 (Q9BQA1 whole entry, further chain): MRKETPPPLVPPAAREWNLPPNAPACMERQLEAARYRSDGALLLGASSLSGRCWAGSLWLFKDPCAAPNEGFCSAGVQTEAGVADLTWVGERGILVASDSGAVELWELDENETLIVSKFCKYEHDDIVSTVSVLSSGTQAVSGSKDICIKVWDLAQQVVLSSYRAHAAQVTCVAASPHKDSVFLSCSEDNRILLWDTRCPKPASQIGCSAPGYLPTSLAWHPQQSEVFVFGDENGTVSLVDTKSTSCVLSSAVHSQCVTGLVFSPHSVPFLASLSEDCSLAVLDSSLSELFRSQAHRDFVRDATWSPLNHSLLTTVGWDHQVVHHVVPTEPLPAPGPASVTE
row,Structure (SMILES),IC50 [nM]
1,"C[C@H](c1ncccn1)N(Cc1ccc(C(F)(F)F)cn1)C(=O)c1ccc2nc(N)c3cncn3c2c1 [US20240262835, Compound 3]",64
2,"C[C@H](c1ncccn1)N(Cc1ccc(C(F)(F)F)cn1)C(=O)c1cc2c(cc1F)nc(N)c1cncn12 [US20240262835, Compound 6]",101
3,"C[C@H](c1ncccn1)N(Cc1ccc(C(F)(F)F)cn1)C(=O)c1ccc2nc(N)n3cncc3c2c1 [US20240262835, Compound 5]",81
4,"C[C@H](c1ncccn1)N(Cc1ccc(C(F)(F)F)cn1)C(=O)c1cc2c(cn1)nc(N)c1cncn12 [US20240262835, Compound 10]",379

# Now those with a lower IC50, led by results:
row,IC50 [nM],Structure (SMILES)
1,6,"C[C@H]1CC[C@H](c2ccc3c(c2)CCC(=O)N3)N(C(=O)c2ccc3nc(N)c4cncn4c3c2)C1 [US20240262835, Compound 4]"
2,8,"Cn1ncc(-c2ccc3c(c2)nc(N)c2cncn23)c1-c1c(F)cc2ccccc2c1C#N [US20240262835, Compound 1]"

# — BindingDB's records for patent US20240262835 (Antengene Discovery, 2024)
